Test results from PubChem BioAssay AID332 (DTP/NCI, 2004).
Where “and” joins values, the source holds several entries; their conditions need not be identical. Equal values may be shown once. Inconclusive results are not listed.

System: mice, ADJ-PC-20 plasma cell tumor sc, T/C %
Assay: NCI In Vivo Anticancer Drug Screen. Data for tumor model ADJ-PC-20 Plasma Cell (subcutaneous) in unknown mice
Details: endpoint: mean tumor weight, higher = larger tumour
Method: The antitumor activity of compounds was measured in mice bearing transplantable tumors. Survival or tumor size were measured and the results are expressed as the measurement made in the treated group (T) divided by the measurement made in the vehicle treated control group (C). The tumor model used in this assay is ADJ-PC-20 Plasma Cell (subcutaneous) in unknown mice

[1] = dose: 62.5 mg/kg/injection, schedule: Q01DX010 (sc), vehicle: steriod suspending solution
[2] = dose: 31.25 mg/kg/injection, schedule: Q01DX010 (sc), vehicle: steriod suspending solution
[3] = dose: 125.0 mg/kg/injection, schedule: Q01DX010 (sc), vehicle: steriod suspending solution
[4] = dose: 250.0 mg/kg/injection, schedule: Q01DX010 (ip), vehicle: carboxymethylcellulose (CMC)
[5] = dose: 6.25 mg/kg/injection, schedule: Q01DX010 (ip), vehicle: carboxymethylcellulose (CMC)
[6] = dose: 25.0 mg/kg/injection, schedule: Q01DX010 (ip), vehicle: carboxymethylcellulose (CMC)
[7] = dose: 12.5 mg/kg/injection, schedule: Q01DX010 (ip), vehicle: carboxymethylcellulose (CMC)
[8] = dose: 50.0 mg/kg/injection, schedule: Q01DX010 (ip), vehicle: carboxymethylcellulose (CMC)
[9] = dose: 16.0 mg/kg/injection, schedule: Q01DX010 (ip), vehicle: carboxymethylcellulose (CMC)
[10] = dose: 32.0 mg/kg/injection, schedule: Q01DX010 (ip), vehicle: carboxymethylcellulose (CMC)
[11] = dose: 6.3 mg/kg/injection, schedule: Q01DX010 (ip), vehicle: water
[12] = dose: 12.5 mg/kg/injection, schedule: Q01DX010 (ip), vehicle: water

Question: With CC/C(=C(/CC)c1ccc(O)cc1)c1ccc(O)cc1 as the compound, how does the T/C [1] read?
Answer: 105 % of control

Question: CN(N=O)C(=O)NC(C=O)C(O)C(O)C(O)CO (configuration not stated) was tested. Which T/C (dose: 50.0 mg/kg/injection, schedule: Q01DX010 (ip), vehicle: saline) did it give?
Answer: 68 % of control

Question: Which results are given for C[C@]12CCC(=O)C=C1CC[C@@H]1[C@@H]2CC[C@@]2(C)[C@H]1CC[C@]2(C)O?
Answer: T/C [2]: 113 % of control; T/C [1]: 114 % of control; T/C [3]: 99 % of control

Question: What does the source list for CC[C@H](c1ccc(O)cc1)[C@@H](CC)c1ccc(O)cc1?
Answer: T/C [2]: 185 % of control; T/C [1]: 180 % of control

Question: What does the source list for COC12C(COC(N)=O)C3=C(C(=O)C(C)=C(N)C3=O)N1CC1C2N1C (configuration not stated)?
Answer: T/C (dose: 0.63 mg/kg/injection, schedule: Q01DX010 (ip), vehicle: carboxymethylcellulose (CMC)): 81 % of control; T/C (dose: 1.25 mg/kg/injection, schedule: Q01DX010 (ip), vehicle: carboxymethylcellulose (CMC)): 43 % of control; T/C (dose: 2.5 mg/kg/injection, schedule: Q01DX010 (ip), vehicle: carboxymethylcellulose (CMC)): 13 % of control

Question: How did the T/C (dose: 0.01 mg/kg/injection, schedule: Q01DX010 (ip), vehicle: saline) turn out when C1CN1c1nc(N2CC2)nc(N2CC2)n1 was run?
Answer: 38 % of control

Question: And the T/C (dose: 1.9 micrograms/kg/injection, schedule: Q01DX010 (ip), vehicle: saline)?
Answer: 170 % of control

Question: And the T/C (dose: 7.8 micrograms/kg/injection, schedule: Q01DX010 (ip), vehicle: saline)?
Answer: 100 % of control

Question: And the T/C (dose: 8.0 micrograms/kg/injection, schedule: Q01DX010 (ip), vehicle: saline)?
Answer: 101 % of control

Question: And the T/C (dose: 15.0 micrograms/kg/injection, schedule: Q01DX010 (ip), vehicle: saline)?
Answer: 99 % of control

Question: And the T/C (dose: 31.0 micrograms/kg/injection, schedule: Q01DX010 (ip), vehicle: saline)?
Answer: 105 % of control

Question: And the T/C (dose: 31.2 micrograms/kg/injection, schedule: Q01DX010 (ip), vehicle: saline)?
Answer: 37 % of control

Question: And the T/C (dose: 63.0 micrograms/kg/injection, schedule: Q01DX010 (ip), vehicle: saline)?
Answer: 66 % of control

Question: Which results are given for O=c1cn[nH]c(=O)[nH]1?
Answer: T/C (dose: 125.0 mg/kg/injection, schedule: Q01DX010 (ip), vehicle: carboxymethylcellulose (CMC)): 75 % of control; T/C [4]: 64 % of control; T/C (dose: 500.0 mg/kg/injection, schedule: Q01DX010 (ip), vehicle: carboxymethylcellulose (CMC)): 66 % of control; T/C (dose: 1000.0 mg/kg/injection, schedule: Q01DX010 (ip), vehicle: carboxymethylcellulose (CMC)): 38 % of control

Question: CN(C)c1ccc(Nc2c3ccccc3nc3ccccc23)cc1 was tested. Which T/C [5] did it give?
Answer: 88 % of control

Question: What about the T/C [6] of the same compound?
Answer: 115 % of control

Question: What about the T/C (dose: 100.0 mg/kg/injection, schedule: Q01DX010 (ip), vehicle: carboxymethylcellulose (CMC)) of the same compound?
Answer: 67 % of control

Question: For CN(Cc1cnc2nc(N)nc(N)c2n1)c1c(Cl)cc(C(=O)NC(CCC(=O)O)C(=O)O)cc1Cl (configuration not stated), which T/C [5] is on record?
Answer: 93 % of control

Question: What about the T/C [7] of the same compound?
Answer: 112 % of control

Question: And the T/C [6]?
Answer: 79 % of control and 97 % of control

Question: And the T/C [8]?
Answer: 71 % of control

Question: Which results are given for COc1ccc(/C=N/NC(N)=S)cc1?
Answer: T/C (dose: 75.0 mg/kg/injection, schedule: Q01DX010 (ip), vehicle: saline): 87 % of control; T/C (dose: 150.0 mg/kg/injection, schedule: Q01DX010 (ip), vehicle: saline): 99 % of control; T/C (dose: 300.0 mg/kg/injection, schedule: Q01DX010 (ip), vehicle: saline): 82 % of control; T/C (dose: 600.0 mg/kg/injection, schedule: Q01DX010 (ip), vehicle: saline): 85 % of control

Question: How did the T/C (dose: 0.78 mg/kg/injection, schedule: Q01DX010 (ip), vehicle: methylcellulose (MC)) turn out when CCN(CC)CCNc1ccc(C)c2sc3ccccc3c(=O)c12 was run?
Answer: 150 % of control

Question: And the T/C (dose: 1.56 mg/kg/injection, schedule: Q01DX010 (ip), vehicle: methylcellulose (MC))?
Answer: 194 % of control

Question: And the T/C (dose: 6.25 mg/kg/injection, schedule: Q01DX010 (ip), vehicle: methylcellulose (MC))?
Answer: 27 % of control

Question: CN(C)c1ccc(/C=C/c2ccnc3ccccc23)cc1 was tested. Which T/C (dose: 2.0 mg/kg/injection, schedule: Q01DX010 (ip), vehicle: carboxymethylcellulose (CMC)) did it give?
Answer: 117 % of control

Question: What about the T/C (dose: 4.0 mg/kg/injection, schedule: Q01DX010 (ip), vehicle: water) of the same compound?
Answer: 81 % of control

Question: What about the T/C [9] of the same compound?
Answer: 89 % of control and 99 % of control

Question: What about the T/C (dose: 16.0 mg/kg/injection, schedule: Q01DX010 (ip), vehicle: water) of the same compound?
Answer: 78 % of control

Question: What about the T/C [10] of the same compound?
Answer: 28 % of control

Question: How did the T/C (dose: 1.25 mg/kg/injection, schedule: Q01DX010 (ip), vehicle: saline) turn out when N=[N+]=CC(=O)OCC(N)C(=O)O (configuration not stated) was run?
Answer: 120 % of control

Question: What about the T/C (dose: 5.0 mg/kg/injection, schedule: Q01DX010 (ip), vehicle: saline) of the same compound?
Answer: 93 % of control

Question: Which T/C (dose: 0.8 mg/kg/injection, schedule: Q01DX010 (ip), vehicle: carboxymethylcellulose (CMC)) does the source give for C[N+](C)(C)c1ncnc2nc[nH]c12 here?
Answer: 70 % of control

Question: What about the T/C (dose: 1.6 mg/kg/injection, schedule: Q01DX010 (ip), vehicle: carboxymethylcellulose (CMC)) of the same compound?
Answer: 59 % of control

Question: And the T/C (dose: 3.1 mg/kg/injection, schedule: Q01DX010 (ip), vehicle: carboxymethylcellulose (CMC))?
Answer: 69 % of control

Question: What about the T/C (dose: 6.3 mg/kg/injection, schedule: Q01DX010 (ip), vehicle: carboxymethylcellulose (CMC)) of the same compound?
Answer: 70 % of control

Question: What about the T/C [7] of the same compound?
Answer: 36 % of control

Question: And the T/C [6]?
Answer: 52 % of control

Question: What about the T/C [8] of the same compound?
Answer: 6 % of control

Question: With CC[C@]1(O)C[C@H]2CN(CCc3c([nH]c4ccccc34)[C@@](C(=O)OC)(c3cc4c(cc3OC)N(C=O)[C@H]3[C@@](O)(C(=O)OC)[C@H](OC(C)=O)[C@]5(CC)C=CCN6CC[C@]43[C@@H]65)C2)C1 as the compound, how does the T/C (dose: 0.12 mg/kg/injection, schedule: Q01DX010 (ip), vehicle: water) read?
Answer: 109 % of control

Question: What about the T/C (dose: 0.5 mg/kg/injection, schedule: Q01DX010 (ip), vehicle: water) of the same compound?
Answer: 105 % of control

Question: And the T/C (dose: 31.0 micrograms/kg/injection, schedule: Q01DX010 (ip), vehicle: water)?
Answer: 97 % of control

Question: And the T/C (dose: 62.0 micrograms/kg/injection, schedule: Q01DX010 (ip), vehicle: water)?
Answer: 95 % of control

Question: And the T/C (dose: 125.0 micrograms/kg/injection, schedule: Q01DX010 (ip), vehicle: water)?
Answer: 90 % of control

Question: And the T/C (dose: 250.0 micrograms/kg/injection, schedule: Q01DX010 (ip), vehicle: water)?
Answer: 63 % of control

Question: Which results are given for CN(C)c1ccc(/C=C\c2ccnc3ccccc23)cc1?
Answer: T/C [11]: 70 % of control; T/C [12]: 52 % of control; T/C (dose: 25.0 mg/kg/injection, schedule: Q01DX010 (ip), vehicle: water): 48 % of control; T/C (dose: 25.0 mg/kg/injection, schedule: Q01DX011 (ip), vehicle: water): 92 % of control

Question: For O=C(Nc1ccc(C2=NCCN2)cc1)c1ccc(C(=O)Nc2ccc(C3=NCCN3)cc2)c(Cl)c1, which T/C (dose: 1.62 mg/kg/injection, schedule: Q01DX010 (ip), vehicle: water) is on record?
Answer: 108 % of control

Question: And the T/C (dose: 3.12 mg/kg/injection, schedule: Q01DX010 (ip), vehicle: water)?
Answer: 152 % of control

Question: And the T/C (dose: 6.25 mg/kg/injection, schedule: Q01DX010 (ip), vehicle: water)?
Answer: 94 % of control

Question: And the T/C [11]?
Answer: 64 % of control

Question: What about the T/C (dose: 7.5 mg/kg/injection, schedule: Q01DX010 (ip), vehicle: water) of the same compound?
Answer: 81 % of control and 83 % of control

Question: And the T/C [12]?
Answer: 121 % of control

Question: What about the T/C (dose: 30.0 mg/kg/injection, schedule: Q01DX010 (ip), vehicle: water) of the same compound?
Answer: 55 % of control and 66 % of control

Question: Which T/C (dose: 4.0 mg/kg/injection, schedule: Q01DX010 (ip), vehicle: carboxymethylcellulose (CMC)) does the source give for c1ccc(CNc2ncnc3[nH]ncc23)cc1 here?
Answer: 110 % of control

Question: And the T/C (dose: 8.0 mg/kg/injection, schedule: Q01DX010 (ip), vehicle: carboxymethylcellulose (CMC))?
Answer: 108 % of control

Question: And the T/C [9]?
Answer: 82 % of control

Question: What about the T/C [10] of the same compound?
Answer: 65 % of control

Question: Which results are given for C[C@]12CCC(=O)C=C1CC[C@@H]1[C@@H]2C(=O)C[C@@]2(C)[C@H]1CC[C@]2(O)C(=O)CO?
Answer: T/C [2]: 7 % of control; T/C [3]: 11 % of control

Question: C[C@]12C=CC(=O)C=C1CC[C@@H]1[C@@H]2[C@@H](O)C[C@@]2(C)[C@H]1CC[C@]2(O)C(=O)CO was tested. Which T/C (dose: 32.0 mg/kg/injection, schedule: Q01DX010 (sc), vehicle: steriod suspending solution) did it give?
Answer: 63 % of control

Question: Which results are given for C=CC(CN1CC1)OC(C)=O (configuration not stated)?
Answer: T/C (dose: 3.75 mg/kg/injection, schedule: Q01DX010 (ip), vehicle: carboxymethylcellulose (CMC)): 72 % of control; T/C (dose: 7.5 mg/kg/injection, schedule: Q01DX010 (ip), vehicle: carboxymethylcellulose (CMC)): 40 % of control

Question: Which results are given for CN(C)c1nc(N(C)C)nc(N(C)C)n1?
Answer: T/C (dose: 62.5 mg/kg/injection, schedule: Q01DX010 (ip), vehicle: carboxymethylcellulose (CMC)): 97 % of control; T/C [4]: 58 % of control

Question: Which results are given for C[C@@H]1C[C@@H]([C@H](O)CC2CC(=O)NC(=O)C2)C(=O)[C@@H](C)C1?
Answer: T/C (dose: 1.6 mg/kg/injection, schedule: Q01DX010 (ip), vehicle: water): 91 % of control; T/C (dose: 3.1 mg/kg/injection, schedule: Q01DX010 (ip), vehicle: water): 84 % of control; T/C (dose: 6.25 mg/kg/injection, schedule: Q01DX010 (ip), vehicle: saline): 50 % of control; T/C [11]: 78 % of control
